Here are results for 40 molecules from patent US6376670B1, “Quinoline-indole antimicrobial agents, uses and compositions related thereto” (Sepracor Inc., priority 1997, dated 2002).

Read-outs that look alike come from different tables or passages of the source.

The subject of experiment [1] is vancomycin-resistant Enterococcus spp. (VRE). Put plainly: Determination of MIC values (BHI broth, 96 well microtiter plate). It counts as cell-based. As to conditions: Enterococcus, VRE, read-out: MIC VREF. The method, then:
(§1) Stock solutions of compounds are prepared with a concentration of 10 mg/mL. These solutions are then diluted 1:4 to give a concentration of 2.5 mg/mL. The compounds are then serially diluted 1:2 for 6 iterations. The concentrations made for each compound are 2.5, 1.25, 0.625, 0.3125, 0.156, 0.078, and 0.039 mg/mL. A control sample (no compound) is run along with each compound tested. All dilutions are made in DMSO.
(§2) All wells of a 96 well microtiter plate are filled with 100 μL of BHI (Brain-Heart Infusion) broth. Columns on the plate are labeled 1-12, and rows are labeled A-H. Each column of wells is used to test one series of diluted compounds. Into each well of 100 μL of BHI broth, 1 μL of diluted compound is placed for a 1:100 dilution. This makes the final concentration of each drug series 25, 12.5, 6.25, 3.125, 1.56, 0.78, 0.39, and 0 μg/mL.
(§3) Test Organism: A sterile 15 mL screw cap tube is filled wth 3 mL of BHI broth. Next, 2-3 colonies of test organism are inoculated into the tube. The tube is then incubated at 37° C. in a CO2 (approx. 7%) atmosphere jar. The organisms are allowed to grow to the density of a 0.5 McFarland standard (10^8 cells/mL). The organism is then inoculated into each well of the microtiter plate containing the diluted compounds to be tested for MIC. The inoculum is 1 μL in volume and represents 10^5 to 10^6 cells/mL.
(§4) After inoculation the plates are covered and incubated at 37° C. and approx. 7-10% CO2 atmosphere overnight (about 16 hours). The plates are then observed for growth, the well with the lowest concentration of drug and no observable growth represents the well determining the MIC.

In experiment [2] the test system is methicillin-resistant Staphylococcus aureus (MRSA). The experiment is described as above. It counts as cell-based. The conditions noted are these: Staphylococcus aureus, MRSA, read-out: MIC MRSA. The protocol: as §1, §2, §3, §4
[3] abbreviates: 16 h, BHI broth, 37° C., overnight (about 16 hours).
The mark [4] stands for this setting: 16 h, BHI broth, 37° C., about 16 hours.
Setting [5] is: VREF, BHI broth, overnight 37° C.

For the molecule `O=C(CCC(=O)N1CCN(C(=O)c2cc(-c3c[nH]c4ccc(Br)cc34)nc3ccccc23)CC1)N1CCN(C(=O)c2cc(-c3c[nH]c4ccc(Br)cc34)nc3ccccc23)CC1` [Example 62], the minimum inhibitory concentration (MIC) in experiment [1] (setting [3]) and in experiment [2] (setting [3]) was over 25 µg/mL each time.
Regarding `COC(=O)c1ccc2nc(-c3c[nH]c4ccc(Br)cc34)cc(C(=O)NCc3ccc(CN)cc3)c2c1` [Example 105], the minimum inhibitory concentration (MIC) in experiment [1] (setting [3]) is under 25 µg/mL; in experiment [2] (setting [3]), over 25 µg/mL.
`Cc1cc2nc(-c3c[nH]c4ccc(Br)cc34)cc(C(=O)N3CCCNCC3)c2cc1C` [Example 130]: the MIC in experiment [1] (setting [3]) and in experiment [2] (setting [3]) was under 7 µg/mL in each case.
Turning to `NCC1CCC(CNC(=O)c2cc(-c3c[nH]c4ccc(Br)cc34)nc3ccccc23)CC1` (stereo not shown) [Example 42], the minimal inhibitory concentration (MIC) in experiment [1] (setting [3]) was under 25 µg/mL; in experiment [2] (setting [3]) it was over 25 µg/mL.
Taken in the same sequence, the figures for `Cn1ccc(-c2cc(C(=O)NCc3ccc(CN)cc3)c3ccccc3n2)c1` [Example 86] were over 25 µg/mL and over 25 µg/mL.
Taken in the same sequence, the figures for `O=C(Nc1ccc(Cl)c(C(F)(F)F)c1)N1CCN(C(=O)c2cc(-c3c[nH]c4ccc(Br)cc34)nc3ccccc23)CC1` [Example 67] were under 7 µg/mL and under 7 µg/mL.
Taken in the same sequence, the figures for `Cc1cccc2c(-c3ccc4ccccc4n3)c[nH]c12` [Example 189] were under 25 µg/mL and under 25 µg/mL.
As for `N=C(N)NCCCC(NC(=O)c1cc(-c2c[nH]c3ccc(Br)cc23)nc2ccccc12)C(N)=O` (stereo not shown) [Example 57], the minimum inhibitory concentration (MIC) in experiment [1] (setting [3]) and in experiment [2] (setting [3]) was under 25 µg/mL each time.
For `O=C(c1cc(-c2c[nH]c3ccc(Br)cc23)nc2ccccc12)N1CCC(N2CCCCC2)CC1` [Example 47], the minimum inhibitory concentration (MIC) in experiment [1] (setting [3]) and in experiment [2] (setting [3]) was under 25 µg/mL each time.
Consider `NCCNC(=O)c1cc(-c2c[nH]c3ccc(Br)cc23)nc2cc(Cl)c(C#CCN3CCCCC3)cc12` [Example 488], for which the MIC in experiment [2] (setting [4]) is under 7 µg/mL.
For `Cc1[nH]c2ccccc2c1-c1cc(C(=O)NCc2ccc(CN)cc2)c2ccccc2n1` [Example 23], the MIC in experiment [1] (setting [3]) and in experiment [2] (setting [3]) was over 25 µg/mL throughout.
For the molecule `NC(=O)C(Cc1ccc2ccccc2c1)NC(=O)c1cc(-c2c[nH]c3ccccc23)nc2ccccc12` (stereo not shown) [Example 145], the MIC is under 25 µg/mL in experiment [1] (setting [3]) and under 7 µg/mL in experiment [2] (setting [3]).
Turning to `Cc1ccc2nc(-c3c[nH]c4ccc(C#N)cc34)ccc2c1` [Example 433], the minimal inhibitory concentration (MIC) in experiment [1] (setting [4]) was over 25 µg/mL; in experiment [2] (setting [4]), under 7 µg/mL.
Take `COc1cc2[nH]cc(-c3ccc4cc(Cl)ccc4n3)c2cc1OC` [Example 206]: the MIC in experiment [1] (setting [5]) was over 25 µg/mL; in experiment [2] (BHI broth, overnight 37° C.) it was over 25 µg/mL.
As to `Cn1c(-c2ccccc2)c(-c2ccc3cc(Cl)ccc3n2)c2ccccc21` [Example 220], the MIC in experiment [1] (setting [5]) was over 25 µg/mL; in experiment [2] (BHI broth, overnight 37° C.), under 25 µg/mL.
For `O=C(O)c1cc(-c2c[nH]c3ccc(Br)cc23)nc2c(Cl)cccc12` [Example 141], the MIC in experiment [1] (setting [3]) and in experiment [2] (setting [3]) was over 25 µg/mL throughout.
For `N[C@H](Cc1c[nH]cn1)C(=O)NCc1ccc(CNC(=O)c2cc(-c3c[nH]c4ccc(Br)cc34)nc3ccccc23)cc1` [Example 73], the minimum inhibitory concentration (MIC) in experiment [1] (setting [3]) and in experiment [2] (setting [3]) was under 25 µg/mL in each case.
Turning to `CN(C)Cc1ccc(CNC(=O)c2cc(-c3c[nH]c4ccc(Br)cc34)nc3ccccc23)cc1` [Example 92], the MIC in experiment [1] (setting [3]) and in experiment [2] (setting [3]) was under 25 µg/mL throughout.
Take `NCC(=O)NCc1ccc(CNC(=O)c2cc(-c3c[nH]c4ccc(Br)cc34)nc3ccccc23)cc1` [Example 71]: the MIC is over 25 µg/mL in experiment [1] (setting [3]) and under 25 µg/mL in experiment [2] (setting [3]).
For `NCCC(=O)NCc1ccc(CNC(=O)c2cc(-c3c[nH]c4ccc(Br)cc34)nc3ccccc23)cc1` [Example 72], in that order: over 25 µg/mL and over 25 µg/mL.
With `NCc1ccc(CNCc2cc(-c3c[nH]c4ccc(Br)cc34)nc3ccccc23)cc1` [Example 39], the minimal inhibitory concentration (MIC) in experiment [1] (setting [3]) and in experiment [2] (setting [3]) was under 7 µg/mL throughout.
For `COc1cc2nc(-c3c[nH]c4ccc(Br)cc34)cc(C(=O)NCc3ccc(CN)cc3)c2cc1OC` [Example 98], the minimum inhibitory concentration (MIC) in experiment [1] (setting [3]) and in experiment [2] (setting [3]) was under 25 µg/mL in each case.
Consider `O=C(c1cc(-c2c[nH]c3ccc(Br)cc23)nc2ccccc12)N1CCC(O)(c2ccccc2)CC1` [Example 36], for which the MIC in experiment [1] (setting [3]) and in experiment [2] (setting [3]) was under 25 µg/mL in each case.
For `NCc1ccc(CNC(=O)c2cc(-c3c[nH]c4ccc(Br)cc34)nc3ccc(C#CCN4CCOCC4)cc23)cc1` [Example 74], the minimum inhibitory concentration (MIC) in experiment [1] (setting [3]) was under 25 µg/mL; in experiment [2] (setting [3]) it was under 7 µg/mL.
Taken in the same sequence, the figures for `NCc1ccc(CNC(=O)c2cc(-c3c[nH]c4ccc(Br)cc34)nc3ccc(Cl)cc23)cc1` [Example 121] were under 7 µg/mL and under 7 µg/mL.
In the case of `O=C(NC1CN2CCC1CC2)c1cc(-c2c[nH]c3ccc(Br)cc23)nc2ccccc12` (stereo not shown) [Example 35], the minimum inhibitory concentration (MIC) was over 25 µg/mL in experiment [1] (16 h) and under 25 µg/mL in experiment [2] (16 h).
As for `O=C(c1cc(-c2c[nH]c3ccccc23)nc2ccccc12)N1CCNCC1` [compound 8], the MIC in experiment [1] (setting [3]) and in experiment [2] (setting [3]) was over 25 µg/mL in each case.
Take `NCC1CCCC(CNC(=O)c2cc(-c3c[nH]c4ccc(Br)cc34)nc3cc(F)ccc23)C1` (stereo not shown) [Example 255]: the minimal inhibitory concentration (MIC) in experiment [1] (setting [5]) was under 7 µg/mL; in experiment [2] (BHI broth, overnight 37° C.), under 7 µg/mL.
On to `N=C(N)NCCC[C@H](NC(=O)c1cc(-c2c[nH]c3ccc(Br)cc23)nc2ccccc12)C(=O)O` [Example 88], for which the MIC in experiment [1] (setting [3]) and in experiment [2] (setting [3]) was over 25 µg/mL each time.
With `Cc1c(-c2c[nH]c3ccc(Br)cc23)nc2ccc(I)cc2c1C(=O)NCc1ccc(CN)cc1` [Example 152], the MIC in experiment [1] (setting [3]) is under 25 µg/mL; in experiment [2] (setting [3]), under 7 µg/mL.
For `NCc1ccc(CNC(=O)c2cc(-c3ccccc3)nc3ccccc23)cc1` [Example 81], in that order: over 25 µg/mL and over 25 µg/mL.
Taken in the same sequence, the figures for `O=[N+]([O-])c1ccc2[nH]cc(-c3ccc4ccccc4n3)c2c1` [Example 186] were over 25 µg/mL and over 25 µg/mL.
As to `NC(=O)C(Cc1ccc2ccccc2c1)NC(=O)c1cc(-c2c[nH]c3ccc(Cl)cc23)nc2ccccc12` (stereo not shown) [Example 147], the MIC in experiment [1] (setting [3]) and in experiment [2] (setting [3]) was under 7 µg/mL throughout.
`O=C(c1cc(-c2c[nH]c3ccc(Br)cc23)nc2ccccc12)N1CCN(c2ccc(F)cc2)CC1` [Example 32]: the MIC in experiment [1] (setting [3]) and in experiment [2] (setting [3]) was under 25 µg/mL throughout.
For the molecule `CC(C)(C)OC(=O)n1cc(-c2cc(C(=O)O)c3cccnc3n2)c2cc(Br)ccc21` [Example 157], the minimum inhibitory concentration (MIC) in experiment [1] (setting [3]) and in experiment [2] (setting [3]) was over 25 µg/mL throughout.
For `NCc1ccc(CNC(=O)c2cc(-c3c[nH]c4ccc(Br)cc34)nc3ncccc23)cc1` [Example 162], the minimal inhibitory concentration (MIC) in experiment [1] (setting [3]) and in experiment [2] (setting [3]) was over 25 µg/mL throughout.
Take `CN(CC#Cc1ccc2c(C(=O)NCc3ccc(CN)cc3)cc(-c3c[nH]c4ccc(Br)cc34)nc2c1)C1CCCCC1` [Example 264]: the MIC in experiment [1] (setting [5]) is under 25 µg/mL; in experiment [2] (BHI broth, overnight 37° C.), under 7 µg/mL.
Take `CN1CCN(C(=O)c2cc(-c3c[nH]c4ccc(Br)cc34)nc3ccccc23)CC1` [Example 30]: the minimal inhibitory concentration (MIC) is over 25 µg/mL in experiment [1] (setting [3]) and under 25 µg/mL in experiment [2] (setting [3]).
Taken in the same sequence, the figures for `COc1ccc2[nH]cc(-c3cc(C(=O)NCc4ccc(CN)cc4)c4ccccc4n3)c2c1` [Example 18] were over 25 µg/mL and over 25 µg/mL.
Consider `NCc1ccc(CNC(=O)c2cc(C34CC5CC(CC(C5)C3)C4)nc3ccccc23)cc1` [Example 26], for which the minimal inhibitory concentration (MIC) in experiment [1] (setting [3]) and in experiment [2] (setting [3]) was under 25 µg/mL each time.
